Experiment: solvent given as SMILES

CCCCCOc1cc2oc(=O)c3c4occc4c4ccc5cccc6c(c1)c2c3c4c56
emission maximum (in C1CCOC1): 433 nm

Cc1ccc2nc3c(=O)n(C)c(=O)nc-3n(C)c2c1
emission maximum (in CC#N): 518 nm

c1ccc2cc(-n3cnc4ccccc43)ccc2c1
emission maximum (in C1CCCCC1): 374 nm
emission maximum (in C1CCOC1): 374 nm
emission maximum (in CC#N): 376 nm
emission maximum (in CCO): 376 nm
emission maximum (in CCOC(C)=O): 375 nm
emission maximum (in CCOCC): 376 nm
emission maximum (in CO): 377 nm
emission maximum (in Cc1ccccc1): 374 nm
emission maximum (in ClC(Cl)Cl): 375 nm

Cn1c(=O)c(/N=N/c2ccc(Nc3ccc([N+](=O)[O-])cc3S(=O)(=O)O)cc2)c(O)c2ccccc21
emission maximum (in C1CCOC1): 615 nm
emission maximum (in CC(C)=O): 617 nm
emission maximum (in CCOC(C)=O): 610 nm
emission maximum (in CO): 619 nm
emission maximum (in CS(C)=O): 622 nm
emission maximum (in Cc1ccccc1): 605 nm
emission maximum (in ClCCl): 617 nm
emission maximum (in O): 636 nm

COc1ccc(/C=C(\C#N)c2nc(-c3ccc(Cl)cc3)cs2)cc1
emission maximum (in CC#N): 472 nm

O=C(/C=C/c1ccc(O)c(O)c1)O[C@H](Cc1ccc(O)c(O)c1)C(=O)O
emission maximum (in C1CCOC1): 397 nm
emission maximum (in CC#N): 413 nm
emission maximum (in CCCC#N): 406 nm
emission maximum (in CCO): 417 nm
emission maximum (in CN(C)C=O): 420 nm
emission maximum (in CO): 432 nm
emission maximum (in CS(C)=O): 432 nm
emission maximum (in ClCCl): 396 nm
emission maximum (in O): 444 nm

COc1cc(C(=O)O)cc(OC)c1O
emission maximum (in O): 333 nm

CN(C)c1ccc2[c](c1)[Sn]([CH3])([CH3])[C]1=CC(=[N+](C)C)C=CC1=C2
emission maximum (in O): 628 nm

CCCCC(CC)COc1ccc2nc(-c3ccc(-c4cccs4)s3)sc2c1 (stereo unspecified)
emission maximum (in ClCCl): 438 nm

Cc1cccc(NC(=O)c2ccc(N(C)C)cc2)c1
emission maximum (in C1CCCCC1): 452 nm
emission maximum (in C1CCOC1): 518 nm
emission maximum (in CC#N): 502 nm
emission maximum (in CCOCC): 498 nm

COc1ccc(/C=C(\C)c2nc3ccccc3s2)cc1
emission maximum (in C1CCCCC1): 400 nm
emission maximum (in CO): 420 nm

C[C@]12SC(=O)C=C1c1nc(-c3ccccc3O)[nH]c1C1=CC(=O)S[C@@]12C
emission maximum (in CC#N): 407 nm

Cc1cc2c3ccccc3[nH]c2c2[nH]c3ccccc3c12
emission maximum (in ClCCl): 371 nm

COc1cc(OC)c2ccc(=O)oc2c1
emission maximum (in CC(C)O): 417 nm
emission maximum (in CCO): 425 nm
emission maximum (in CCOCC): 390 nm
emission maximum (in CO): 432 nm
emission maximum (in O): 450 nm

CCN(CC)c1ccc(/C=C/c2ccc(-c3ccc(/C=C/c4ccc(N(CC)CC)cc4)s3)s2)cc1
emission maximum (in C1CCOC1): 544 nm
emission maximum (in CC#N): 577 nm
emission maximum (in CC(C)=O): 570 nm
emission maximum (in CN(C)C=O): 586 nm
emission maximum (in Cc1ccccc1): 530 nm

CCCCOC(=O)/C(C#N)=C1\C(=CC2=[N+](C)c3ccccc3C2(C)C)C([O-])=C1C=C1N(C)c2ccccc2C1(C)C
emission maximum (in ClC(Cl)Cl): 708 nm

CC1=C(c2cccs2)C(C)=[N+]2C1=C(c1ccc(OS(=O)(=O)c3ccc([N+](=O)[O-])cc3[N+](=O)[O-])cc1)c1c(C)c(-c3cccs3)c(C)n1[B-]2(F)F
emission maximum (in CO): 609 nm
emission maximum (in Cc1ccccc1): 608 nm
emission maximum (in ClCCl): 607 nm

N#Cc1nc2c3ccc(N(c4ccccc4)c4ccccc4)cc3c3cc(N(c4ccccc4)c4ccccc4)ccc3c2nc1C#N
emission maximum (in C1COCCO1): 586.91 nm
emission maximum (in CCCCCC): 515.27 nm
emission maximum (in Cc1ccccc1): 566 nm
emission maximum (in ClC(Cl)Cl): 639.45 nm
emission maximum (in O=P(c1ccccc1)(c1ccccc1)c1cccc(-c2cc(-n3c4ccccc4c4ccccc43)cc(-n3c4ccccc4c4ccccc43)c2)n1): 606 nm

CC[n+]1c(C=C2C(=O)C(C=C3N(C)c4ccccc4C3(C)C)=C2[O-])[se]c2ccccc21
emission maximum (in CO): 661 nm
emission maximum (in ClC(Cl)Cl): 675 nm

CC(C)[Si](C#Cc1c2ccc(C(C)(C)C)cc2c(C#C[Si](C(C)C)(C(C)C)C(C)C)c2ccc(C(C)(C)C)cc12)(C(C)C)C(C)C
emission maximum (in Cc1ccccc1): 461 nm

COc1ccc(-c2nc3c([nH]2)=C2C=C(Cl)S[C@@]2(C)[C@]2(C)SC(Cl)=CC=32)cc1
emission maximum (in CC#N): 378 nm

Cc1cc(C)n2c1C=C1c3ccccc3C(c3c[nH]c4ccccc34)=[N+]1[B-]2(F)F
emission maximum (in C1CCOC1): 606 nm
emission maximum (in CC#N): 602 nm
emission maximum (in CCCCCC): 598 nm
emission maximum (in CO): 603 nm
emission maximum (in Cc1ccccc1): 608 nm
emission maximum (in ClCCl): 606 nm

Cc1ccc(/C=C/C(F)(F)F)c(N)c1
emission maximum (in C1CCOC1): 423 nm

COc1ccc(C2=N/C(=C\c3ccccc3)C(=O)N2)cc1OC
emission maximum (in C1COCCO1): 455 nm

c1ccc(-c2nc(-c3ccc(-n4c5ccccc5c5ccc6c(c7ccccc7n6-c6ccccc6)c54)cc3)c3sc4ccccc4c3n2)cc1
emission maximum (in Cc1ccccc1): 465.01 nm

Cc1cccc(C)c1Nc1ccc(/C=C/c2ccccc2)cc1
emission maximum (in CC#N): 424 nm
emission maximum (in CCCCCC): 375 nm

CC[N+]1(CC)CN2C(=N1)C(C(=O)O)=Cc1cc(SC)ccc12
emission maximum (in O): 515 nm

CC(C)(C)c1ccc2c(c1)c1cc(C(C)(C)C)ccc1n2-c1ccc(-c2nc(-c3ccc(-n4c5ccc(C(C)(C)C)cc5c5cc(C(C)(C)C)ccc54)cc3)nc(-c3ccc(P(=O)(c4ccccc4)c4ccccc4)cc3)n2)cc1
emission maximum (in C1CCOC1): 501.73 nm
emission maximum (in CC#N): 543.52 nm
emission maximum (in CC(C)=O): 525.92 nm
emission maximum (in CN(C)C=O): 574.19 nm
emission maximum (in Cc1ccccc1): 474.19 nm
emission maximum (in ClCCl): 526.57 nm
emission maximum (in O=P(c1ccccc1)(c1ccccc1)c1ccccc1Oc1ccccc1P(=O)(c1ccccc1)c1ccccc1): 492 nm

COc1cc2c(cc1OC)C1=C[C@H](c3ccc(C)cc3)C3(C(C#N)=C(C#N)N1CC2)c1ccccc1-c1ccccc13
emission maximum (in ClCCl): 403 nm

CC(C)[Si](C#Cc1c2ccccc2c(C#C[Si](C(C)C)(C(C)C)C(C)C)c2nc3c(nc12)Cc1ccccc1-3)(C(C)C)C(C)C
emission maximum (in CCCCCC): 494 nm

Cc1ccc(-c2cc(-c3ccccc3)c3c(N)nc(N4CCCC4)c(C#N)c3n2)cc1
emission maximum (in CC#N): 528 nm
emission maximum (in CC(C)=O): 524 nm
emission maximum (in CC(C)O): 518 nm
emission maximum (in CO): 527 nm
emission maximum (in ClC(Cl)Cl): 510 nm
emission maximum (in ClCCl): 517 nm
emission maximum (in c1ccccc1): 504 nm

c1ccc(Nc2nc(Nc3ccccc3)nc(Nc3ccc4cc5ccccc5cc4c3)n2)cc1
emission maximum (in C1COCCO1): 442 nm
emission maximum (in CC#N): 441 nm
emission maximum (in CCCCOCCCC): 441 nm
emission maximum (in CCOC(C)=O): 440 nm

COC(=O)[C@H](Cc1ccccc1)Nc1c(C(C)=O)c(=O)oc2cc(N(C)C)ccc12
emission maximum (in ClCCl): 449 nm

CN(C)c1cccc2c1C(=O)c1ccccc1-2
emission maximum (in C1CCCCC1): 498 nm
emission maximum (in CC#N): 534 nm
emission maximum (in CCO): 541 nm
emission maximum (in c1ccccc1): 520 nm

Cc1cc(=O)oc2ccc3ccc(-c4cn(Cc5ccccc5)nn4)cc3c12
emission maximum (in CCO): 420 nm

CCC(CC)COC1=CC2=C3c4cc(OCC(CC)CC)c(-c5ccccc5)n4[B-](F)(F)[n+]4c3n(c3cc(C(C)(C)C)ccc34)[B-](F)(F)[N+]2=C1c1ccccc1
emission maximum (in C1CCOC1): 734 nm
emission maximum (in CC#N): 733 nm
emission maximum (in ClCCl): 736 nm

CCN(CC)c1ccc2cc(-c3csc(NC(C)=O)c3C#N)c(=O)oc2c1
emission maximum (in C1CCOC1): 457 nm
emission maximum (in CO): 477 nm
emission maximum (in CS(C)=O): 479 nm
emission maximum (in Cc1ccccc1): 448 nm
emission maximum (in ClCCl): 463 nm

Cn1c2ccc(S(=O)(=O)Cl)cc2c(=O)c2cc(S(=O)(=O)Cl)ccc21
emission maximum (in CS(C)=O): 424 nm

c1ccc(-c2cc3cc4cccc5c(-c6ccccc6)cc6cc7cccc2c7c3c6c45)cc1
emission maximum (in ClCCl): 442 nm

COC1=C/C(=C\C=C2C=CN(Cc3ccc(Br)cc3)C=C2)C=CC1=O
emission maximum (in CC#N): 665 nm
emission maximum (in CC(C)=O): 670 nm
emission maximum (in CC(C)CO): 642 nm
emission maximum (in CC(C)O): 641 nm
emission maximum (in CCC#N): 665 nm
emission maximum (in CCCCCCO): 645 nm
emission maximum (in CCCCCO): 643 nm
emission maximum (in CCCCO): 640 nm
emission maximum (in CCCO): 639 nm
emission maximum (in CCO): 638 nm
emission maximum (in CN(C)C=O): 682 nm
emission maximum (in CN(C)P(=O)(N(C)C)N(C)C): 670 nm
emission maximum (in CO): 636 nm
emission maximum (in CS(C)=O): 669 nm

CCCCCCOc1cc(N(CC)CC)ccc1/C=C(\C#N)c1ccc(/C=C/C(=C(C#N)C#N)c2ccc(N(c3ccccc3)c3ccccc3)cc2)s1
emission maximum (in ClCCl): 750 nm

CCCCC1(CCCC)c2cc(C#Cc3ccc(C=C4c5ccccc5C=Cc5ccccc54)cc3)ccc2-c2ccc(C#Cc3ccc(C=C4c5ccccc5C=Cc5ccccc54)cc3)cc21
emission maximum (in C1CCOC1): 405 nm

CC1(C)c2ccccc2N(c2ccc(-c3cccc(C#N)c3)cc2)c2ccccc21
emission maximum (in Cc1ccccc1): 431 nm
emission maximum (in N#Cc1ccc2c(c1)c1ccccc1n2-c1cccc(-n2c3ccccc3c3ccccc32)c1): 436 nm

CCC1(CC)c2ccccc2-c2c1c1c(c3c2C(CC)(CC)c2cc(/C=C/c4cccs4)ccc2-3)C(CC)(CC)c2cc(/C=C/c3cccs3)ccc2-1
emission maximum (in C1CCOC1): 397 nm

COc1ccc2c(=O)c3c([nH]c2c1)-c1cc(Cl)ccc1NC3(C)C
emission maximum (in C1CCOC1): 489 nm
emission maximum (in CC#N): 512 nm
emission maximum (in CCCCO): 525 nm
emission maximum (in CCCO): 525 nm
emission maximum (in CCO): 525 nm
emission maximum (in CCOC(C)=O): 497 nm
emission maximum (in CN(C)C=O): 509 nm
emission maximum (in CO): 532 nm
emission maximum (in CS(C)=O): 511 nm
emission maximum (in Cc1ccccc1): 477 nm
emission maximum (in ClC(Cl)(Cl)Cl): 469 nm
emission maximum (in ClCCl): 491 nm
emission maximum (in O): 555 nm
emission maximum (in c1ccccc1): 478 nm

CCCCCCc1ccc(-n2c3c4cccc(OC)c4nc(-c4ccc(OC)cc4)c3c3c2c2c(-c4ccc(OC)cc4)nc4c(OC)cccc4c2n3-c2ccc(CCCCCC)cc2)cc1
emission maximum (in ClC(Cl)Cl): 453 nm

COC(=O)C(Cc1ccc2oc(-c3ccncc3)nc2c1)NC(=O)OC(C)(C)C (stereo unspecified)
emission maximum (in CC1CCCCC1): 356.74 nm
emission maximum (in CC#N): 374.95 nm
emission maximum (in CO): 384.74 nm

CCCN1/C(=C/C=C(/C=C/C2=[N+](CCC)c3ccccc3C2(C)C)c2cc[n+](C)cc2)C(C)(C)c2ccccc21
emission maximum (in CO): 658 nm
emission maximum (in CS(C)=O): 657 nm
emission maximum (in O): 658 nm

Source: the Deep4Chem optical property database
